Molecular target: Integrin alpha-V/beta-3 (Homo sapiens, UniProt P05106+P06756)
Test: Inhibition of [125I]echistatin binding to integrin alphaVbeta3 receptor

Sequence of Integrin alpha-V/beta-3 (P05106 27-788 limits assumed): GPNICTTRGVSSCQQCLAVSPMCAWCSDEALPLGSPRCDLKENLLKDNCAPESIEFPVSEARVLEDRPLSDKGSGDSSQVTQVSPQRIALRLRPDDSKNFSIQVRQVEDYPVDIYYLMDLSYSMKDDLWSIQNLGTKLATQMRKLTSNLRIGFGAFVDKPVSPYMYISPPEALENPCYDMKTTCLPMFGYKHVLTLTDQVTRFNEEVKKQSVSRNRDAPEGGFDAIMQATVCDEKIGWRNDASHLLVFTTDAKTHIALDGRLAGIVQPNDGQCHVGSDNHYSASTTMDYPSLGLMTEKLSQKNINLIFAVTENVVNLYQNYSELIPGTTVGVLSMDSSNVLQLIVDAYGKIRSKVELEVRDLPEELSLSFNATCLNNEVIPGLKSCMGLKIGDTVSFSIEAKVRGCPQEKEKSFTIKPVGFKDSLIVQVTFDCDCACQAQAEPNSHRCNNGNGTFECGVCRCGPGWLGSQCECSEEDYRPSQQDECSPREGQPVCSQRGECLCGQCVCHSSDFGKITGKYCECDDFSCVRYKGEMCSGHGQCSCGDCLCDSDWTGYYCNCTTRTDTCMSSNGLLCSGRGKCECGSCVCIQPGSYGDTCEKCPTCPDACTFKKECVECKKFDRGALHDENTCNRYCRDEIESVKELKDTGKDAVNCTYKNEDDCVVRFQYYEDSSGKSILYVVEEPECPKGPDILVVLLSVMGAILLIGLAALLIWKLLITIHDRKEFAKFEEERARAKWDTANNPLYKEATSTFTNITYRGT
Sequence of Integrin alpha-V/beta-3 (P06756 31-889 limits assumed): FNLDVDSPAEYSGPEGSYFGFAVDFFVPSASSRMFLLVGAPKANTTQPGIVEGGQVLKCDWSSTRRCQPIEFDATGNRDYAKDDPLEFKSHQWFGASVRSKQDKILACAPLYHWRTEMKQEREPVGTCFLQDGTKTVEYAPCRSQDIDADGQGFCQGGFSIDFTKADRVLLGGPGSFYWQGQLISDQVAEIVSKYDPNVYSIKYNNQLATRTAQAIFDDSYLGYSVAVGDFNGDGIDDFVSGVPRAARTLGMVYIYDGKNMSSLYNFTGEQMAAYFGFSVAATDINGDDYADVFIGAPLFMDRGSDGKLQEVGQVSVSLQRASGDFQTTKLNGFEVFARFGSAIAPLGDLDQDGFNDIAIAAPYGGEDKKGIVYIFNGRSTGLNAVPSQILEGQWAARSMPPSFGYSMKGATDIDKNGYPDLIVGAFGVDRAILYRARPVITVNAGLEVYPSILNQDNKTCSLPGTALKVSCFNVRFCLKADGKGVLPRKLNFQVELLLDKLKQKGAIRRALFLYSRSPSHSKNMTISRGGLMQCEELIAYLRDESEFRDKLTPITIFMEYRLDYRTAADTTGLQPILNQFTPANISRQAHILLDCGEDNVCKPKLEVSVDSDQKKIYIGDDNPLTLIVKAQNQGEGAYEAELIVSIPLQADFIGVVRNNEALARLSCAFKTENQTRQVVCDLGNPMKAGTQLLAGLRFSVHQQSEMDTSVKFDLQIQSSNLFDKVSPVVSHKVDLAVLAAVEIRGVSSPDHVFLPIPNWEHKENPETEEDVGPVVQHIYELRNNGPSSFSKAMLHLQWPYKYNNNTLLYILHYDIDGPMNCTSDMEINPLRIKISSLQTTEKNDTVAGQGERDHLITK
Sequence of Integrin alpha-V/beta-3 (P06756 891-1048 limits assumed): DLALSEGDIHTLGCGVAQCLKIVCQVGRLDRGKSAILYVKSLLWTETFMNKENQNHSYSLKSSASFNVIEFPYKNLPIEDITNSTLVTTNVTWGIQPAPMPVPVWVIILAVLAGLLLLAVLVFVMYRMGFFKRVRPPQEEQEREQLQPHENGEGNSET

With `O=C(O)c1cccc(-c2ccc(CN=Nc3nc4nonc4nc3Nc3ccc(F)cc3)o2)c1` [3-(5-{[6-(4-fluoro-phenylamino)-[1,2,5]oxadiazolo[3,4-b]pyrazin-5-yl]-hydrazonomethyl}-furan-2-yl)-benzoic acid] the IC50 was over 1000 nM.

From BindingDB's records for doi:10.1021/jm051296s (University of Southern California, 2006)
